From the NIST ThermoML archive (doi:10.1021/je049655w) come the findings set out here.

Values joined by “and” are separate entries in the source; they are usually repeats but may differ in a detail not shown here. Equal values may be shown once. Numbers after ± are expanded uncertainties.

The term mass density denotes the mass of a sample divided by its volume. One may read the viscosity as the internal friction of a fluid under shear. The refractive index is a measure of how strongly the sample bends light.

For series [1] the following is noted: 100.8 kPa, Liquid.
Series [2] in a line: refractive index (Na D-line) (dimensionless). Particulars: 298.15 K; 101.33 kPa; Liquid; Standard Abbe refractometry.
The nature of series [3]: xn = mol fraction of the nth substance listed. The settings on record: 100.8 kPa, Liquid, x1 = 1.

On to `CC(C)CC(C)(C)C` [2,2,4-trimethylpentane], for which the mass density in series [1] (298.15 K) is 687.8 ± 0.4 kg/m3; in series [1] (308.15 K) it was 679.5 ± 0.4 kg/m3; in series [1] (318.15 K) it was 671 ± 0.4 kg/m3. The viscosity in series [1] (298.15 K) was 0.474 ± 0.01 mPa·s; in series [1] (308.15 K) it was 0.422 ± 0.009 mPa·s and 0.426 ± 0.009 mPa·s; in series [1] (318.15 K) it was 0.382 ± 0.008 mPa·s. The refractive index in series [2] came to 1.38902 ± 0.00072.
As for `CCC(C)=O` [butanone], the mass density in series [1] (298.15 K) came out at 799.7 ± 0.3 kg/m3; in series [1] (308.15 K), 789.2 ± 0.3 kg/m3; in series [1] (318.15 K), 778.4 ± 0.3 kg/m3. Further, the viscosity is recorded as 0.378 ± 0.008 mPa·s in series [1] (298.15 K), 0.341 ± 0.007 mPa·s in series [1] (308.15 K) and 0.307 ± 0.007 mPa·s in series [1] (318.15 K). In series [2], the refractive index came to 1.37623 ± 0.00072.
Take `CCO` [ethanol]: the mass density in series [1] (298.15 K) came to 785.1 ± 0.3 kg/m3; in series [1] (308.15 K), 776.5 ± 0.3 kg/m3; in series [1] (318.15 K) it was 767.7 ± 0.3 kg/m3. Besides, the viscosity is on record as 1.088 ± 0.021 mPa·s in series [1] (298.15 K), 0.904 ± 0.018 mPa·s in series [1] (308.15 K) and 0.763 ± 0.015 mPa·s in series [1] (318.15 K). Also, the refractive index in series [2] is given as 1.35949 ± 0.00072.
Turning to `CCO` [ethanol] + CC(C)CC(C)(C)C, the mass density in series [3] (298.15 K) is given as 785.1 ± 0.3 kg/m3; in series [3] (308.15 K), 776.5 ± 0.3 kg/m3; in series [3] (318.15 K), 767.7 ± 0.3 kg/m3. Also, the viscosity in series [3] (298.15 K) is 1.088 ± 0.021 mPa·s; in series [3] (308.15 K), 0.904 ± 0.018 mPa·s; in series [3] (318.15 K), 0.763 ± 0.015 mPa·s.
For `CCO` [ethanol] + CCC(C)=O, the mass density was 785.1 ± 0.3 kg/m3 in series [3] (298.15 K), 776.5 ± 0.3 kg/m3 in series [3] (308.15 K) and 767.7 ± 0.3 kg/m3 in series [3] (318.15 K). Further, the viscosity in series [3] (298.15 K) turned out to be 1.088 ± 0.021 mPa·s; in series [3] (308.15 K) it was 0.904 ± 0.018 mPa·s; in series [3] (318.15 K), 0.763 ± 0.015 mPa·s.
